*1 amine or outer side, *2 acyl side, *3 side chain or, on linkers, in order; H or OH if unused. Where a SMILES comes first, the peptide text is derived from it. Bridges are numbered along the chain shown (N, C = ends). [ ]: non-standard residue; d: D form. The star is where a group is joined. ξ: configuration not given here. Phe(3-(CH2)7CO) = O=C([C@H](Cc1cccc(CCCCCCCC(=O)[*:3])c1)N[*:1])[*:2]; Heptanedioyl = O=C(CCCCCC(=O)[*:2])[*:1]; Azelaoyl = O=C(CCCCCCCC(=O)[*:2])[*:1]; Suberoyl = O=C(CCCCCCC(=O)[*:2])[*:1]; Adipoyl = O=C(CCCCC(=O)[*:2])[*:1]; Glutaryl = O=C(CCCC(=O)[*:2])[*:1]; X1 = CCCC(N[*:1])C(=O)C(=O)[*:2]; Chg = N[C@H](C(=O)O)C1CCCCC1; Phg = N[C@H](C(=O)O)c1ccccc1; Suc = O=C(CCC(=O)[*:2])[*:1]; ξChg = NC(C(=O)O)C1CCCCC1; OtBu = CC(C)(C)O*
The compounds below were run against Recombinant heterodimeric HCV NS3/NS4A protease (strain 1a) (Hepatitis C virus genotype 1a, UniProt P27958) (assay: biochemical).
Set-up: species or system HCV (strain 1a)

Chain of Recombinant heterodimeric HCV NS3/NS4A protease (strain 1a) (P27958 1027-1657 limits assumed): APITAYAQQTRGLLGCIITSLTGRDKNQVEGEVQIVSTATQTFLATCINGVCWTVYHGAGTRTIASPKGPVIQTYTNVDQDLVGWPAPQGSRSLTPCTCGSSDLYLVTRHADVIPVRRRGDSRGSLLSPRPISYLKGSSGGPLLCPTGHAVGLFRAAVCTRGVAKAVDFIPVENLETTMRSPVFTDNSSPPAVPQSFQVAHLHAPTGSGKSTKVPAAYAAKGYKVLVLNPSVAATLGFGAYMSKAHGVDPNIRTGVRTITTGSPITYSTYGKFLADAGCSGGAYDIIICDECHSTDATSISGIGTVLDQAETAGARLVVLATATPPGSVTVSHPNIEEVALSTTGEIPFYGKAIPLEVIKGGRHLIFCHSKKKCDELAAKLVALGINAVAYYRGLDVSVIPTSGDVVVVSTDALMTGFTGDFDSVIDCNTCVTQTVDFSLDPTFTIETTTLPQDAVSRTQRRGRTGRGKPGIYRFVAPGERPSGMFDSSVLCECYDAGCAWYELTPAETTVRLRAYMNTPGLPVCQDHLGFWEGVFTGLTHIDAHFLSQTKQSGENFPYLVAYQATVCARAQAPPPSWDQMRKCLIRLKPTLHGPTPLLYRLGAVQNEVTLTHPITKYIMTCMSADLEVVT
Chain of Recombinant heterodimeric HCV NS3/NS4A protease (strain 1a) (P27958 1658-1711 partner limits assumed): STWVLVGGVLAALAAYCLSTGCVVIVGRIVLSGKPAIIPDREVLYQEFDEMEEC

| Compound | Ki [nM] |
| --- | --- |
| CCCC(NC(=O)C1Cc2cccc(c2)Oc2ccc(cc2)CCC(=O)NC(C2CCCCC2)C(=O)N1)C(=O)C(=O)NCC(=O)NC(C(=O)O)c1ccccc1 (centres unmarked) [Example 2] | 1 to 1000 |
| CCCC(NC(=O)C1Cc2cccc(c2)Oc2ccc(cc2)CCC(=O)NC(C2CCCCC2)C(=O)N1)C(=O)C(=O)NCC(=O)OC(C)(C)C (centres unmarked) [Example 3] | 1100 to 100000 |
| CCCC(NC(=O)C1Cc2cccc(c2)Oc2ccc(cc2)CCC(=O)NC(C2CCCCC2)C(=O)N1)C(=O)C(=O)NCC(=O)O (centres unmarked) [Example 4] | 1100 to 100000 |
| CCCC(NC(=O)C1Cc2cccc(c2)Oc2ccc(cc2)CCCC(=O)NC(C2CCCCC2)C(=O)N1)C(=O)C(=O)NCC(=O)NC(C(=O)O)c1ccccc1 (centres unmarked) [Example 6] | 1 to 1000 |
| CCCC(NC(=O)C1Cc2cccc(c2)Oc2ccc(cc2)CCCCC(=O)NC(C2CCCCC2)C(=O)N1)C(=O)C(=O)NCC(=O)NC(C(=O)OC(C)(C)C)c1ccccc1 (centres unmarked) [Example 7] | 1100 to 100000 |
| CCCC(NC(=O)C1Cc2cccc(c2)Oc2ccc(cc2)CCCCC(=O)NC(C2CCCCC2)C(=O)N1)C(=O)C(=O)NCC(=O)NC(C(=O)O)c1ccccc1 (centres unmarked) [Example 8] | 1 to 1000 |
| CCCC(NC(=O)C1Cc2cccc(c2)Oc2ccc(cc2)CCC(=O)NCC(=O)N1)C(=O)C(=O)NCC(=O)NC(C(=O)O)c1ccccc1 (centres unmarked) [Example 10] | 1100 to 100000 |
| CCCC(NC(=O)[C@@H]1Cc2cccc(c2)OCCCCCCC(=O)N[C@@H](C2CCCCC2)C(=O)N1)C(=O)C(=O)NCC(=O)N[C@H](C(=O)OC(C)(C)C)c1ccccc1 (some centres unmarked) [Example 11] | 1100 to 100000 |
| CCCC(NC(=O)[C@@H]1Cc2cccc(c2)OCCCCCCC(=O)N[C@@H](C2CCCCC2)C(=O)N1)C(=O)C(=O)NCC(=O)N[C@H](C(=O)O)c1ccccc1 (some centres unmarked) [Example 12] | 1 to 1000 |
| CCCC(NC(=O)[C@@H]1Cc2cccc(c2)OCCCCCC(=O)N[C@@H](C2CCCCC2)C(=O)N1)C(=O)C(=O)NCC(=O)N[C@H](C(=O)OC(C)(C)C)c1ccccc1 (some centres unmarked) [Example 13] | 1100 to 100000 |
| CCCC(NC(=O)[C@@H]1Cc2cccc(c2)OCCCCCC(=O)N[C@@H](C2CCCCC2)C(=O)N1)C(=O)C(=O)NCC(=O)N[C@H](C(=O)O)c1ccccc1 (some centres unmarked) [Example 14] | 1100 to 100000 |
| CCCC(NC(=O)[C@@H]1Cc2cccc(c2)C=CCCCCCC(=O)N[C@@H](C2CCCCC2)C(=O)N1)C(=O)C(=O)NCC(=O)N[C@H](C(=O)OC(C)(C)C)c1ccccc1 (some centres unmarked) [Example 15] | 1100 to 100000 |
| CCCC(NC(=O)[C@@H]1Cc2cccc(c2)C=CCCCCCC(=O)N[C@@H](C2CCCCC2)C(=O)N1)C(=O)C(=O)NCC(=O)N[C@H](C(=O)O)c1ccccc1 (some centres unmarked) [Example 16] | 1 to 1000 |
| CCCC(NC(=O)[C@@H]1Cc2cccc(c2)CCCCCCCC(=O)N[C@@H](C2CCCCC2)C(=O)N1)C(=O)C(=O)NCC(=O)N[C@H](C(=O)OC(C)(C)C)c1ccccc1 (some centres unmarked) [Example 17] ([Chg][Phe(3-(CH2)7CO)][X1]G[Phg]-OtBu; lactam N-2) | 1100 to 100000 |
| CCCC(NC(=O)[C@@H]1Cc2cccc(c2)CCCCCCCC(=O)N[C@@H](C2CCCCC2)C(=O)N1)C(=O)C(=O)NCC(=O)N[C@H](C(=O)O)c1ccccc1 (some centres unmarked) [Example 18] ([Chg][Phe(3-(CH2)7CO)][X1]G[Phg]-OH; lactam N-2) | 1 to 1000 |
| CCCC(NC(=O)[C@@H]1Cc2cccc(c2)OCCCCCNC(=O)N[C@@H](C2CCCCC2)C(=O)N1)C(=O)C(=O)NCC(=O)N[C@H](C(=O)OC(C)(C)C)c1ccccc1 (some centres unmarked) [Example 19] | 1100 to 100000 |
| CCCC(NC(=O)[C@@H]1Cc2cccc(c2)OCCCCCNC(=O)N[C@@H](C2CCCCC2)C(=O)N1)C(=O)C(=O)NCC(=O)N[C@H](C(=O)O)c1ccccc1 (some centres unmarked) [Example 20] | 1 to 1000 |
| CCCC(NC(=O)[C@@H]1Cc2cccc(c2)OCCCCCCOC(=O)N[C@@H](C2CCCCC2)C(=O)N1)C(=O)C(=O)NCC(=O)N[C@H](C(=O)O)c1ccccc1 (some centres unmarked) [Example 22] | 1 to 1000 |
| CCCC(NC(=O)C1Cc2cn(cn2)CCCCCCCC(=O)NC(C2CCCCC2)C(=O)N1)C(=O)C(=O)NCC(=O)NC(C(=O)OC(C)(C)C)c1ccccc1 (centres unmarked) [Example 23] | 1100 to 100000 |
| CCCC(NC(=O)[C@@H]1Cc2cn(cn2)CCCCCCCC(=O)N[C@@H](C2CCCCC2)C(=O)N1)C(=O)C(=O)NCC(=O)N[C@H](C(=O)O)c1ccccc1 (some centres unmarked) [Example 24] | 1100 to 100000 |
| CCCC(NC(=O)C1Cc2cccc(c2)Oc2ccc(cc2)CC(NC(=O)OC(C)(C)C)C(=O)NC(C2CCCCC2)C(=O)N1)C(=O)C(=O)NCC(=O)O (centres unmarked) [Example 28] | 1100 to 100000 |
| CCCC(NC(=O)C1Cc2cccc(c2)Oc2ccc(cc2)CC(NC(C)=O)C(=O)NC(C2CCCCC2)C(=O)N1)C(=O)C(=O)NCC(=O)NC(C(=O)OC(C)(C)C)c1ccccc1 (centres unmarked) [Example 29] | 1100 to 100000 |

| Compound | Ki [nM] |
| --- | --- |
| CCCC(NC(=O)[C@@H]1Cc2cccc(c2)Oc2ccc(cc2)CC(NC(C)=O)C(=O)N[C@@H](C2CCCCC2)C(=O)N1)C(=O)C(=O)NCC(=O)N[C@H](C(=O)O)c1ccccc1 (some centres unmarked) [Example 30] | 1 to 1000 |
| CCCC(NC(=O)C1Cc2cccc(c2)Oc2ccc(cc2)CC(NC(C)=O)C(=O)NC(C2CCCCC2)C(=O)N1)C(=O)C(=O)NCC(=O)OC(C)(C)C (centres unmarked) [Example 31] | 1100 to 100000 |
| CCCC(NC(=O)[C@@H]1Cc2cccc(c2)Oc2ccc(cc2)CC(NC(C)=O)C(=O)N[C@@H](C2CCCCC2)C(=O)N1)C(=O)C(=O)NCC(=O)O (some centres unmarked) [Example 32] | 1100 to 100000 |
| CCCC(NC(=O)C1Cc2cccc(c2)Oc2ccc(cc2)CCC(=O)NC(C2CCCCC2)C(=O)O1)C(=O)C(=O)NCC(=O)NC(C(=O)OC(C)(C)C)c1ccccc1 (centres unmarked) [Example 33] | 1100 to 100000 |
| CCCC(NC(=O)C1Cc2cccc(c2)Oc2ccc(cc2)CCC(=O)NC(C2CCCCC2)C(=O)O1)C(=O)C(=O)NCC(=O)NC(C(=O)O)c1ccccc1 (centres unmarked) [Example 34] | 1100 to 100000 |
| CCCC(NC(=O)[C@H]1Cc2cccc(c2)Oc2ccc(cc2)CCC(=O)N[C@@H](C2CCCCC2)C(=O)O1)C(=O)C(=O)NCC(=O)N[C@H](C(=O)OC(C)(C)C)c1ccccc1 (some centres unmarked) [Example 37] | 1100 to 100000 |
| CCCC(NC(=O)[C@H]1Cc2cccc(c2)Oc2ccc(cc2)CCC(=O)N[C@@H](C2CCCCC2)C(=O)O1)C(=O)C(=O)NCC(=O)N[C@H](C(=O)O)c1ccccc1 (some centres unmarked) [Example 38] | 1100 to 100000 |
| CCCC(NC(=O)C1Cc2cccc(c2)OCCCCCCOC(=O)NC(C2CCCCC2)C(=O)N1)C(=O)C(=O)NCC(=O)N[C@H](C(=O)N(C)C)c1ccccc1 (some centres unmarked) [Example 39] | 1 to 1000 |
| CCCC(NC(=O)[C@@H]1CCCCNC(=O)CCCC(=O)NC(C2CCCCC2)C(=O)N1)C(=O)C(=O)NCC(=O)N[C@H](C(N)=O)c1ccccc1 (some centres unmarked) [Example 40] ([ξChg]K[X1]G[Phg]-NH2; linker N-2 via Glutaryl) | 1100 to 100000 |
| CCCC(NC(=O)[C@@H]1CCCCNC(=O)CCCCCCC(=O)N[C@@H](C2CCCCC2)C(=O)N1)C(=O)C(=O)NCC(=O)N[C@H](C(N)=O)c1ccccc1 (some centres unmarked) [Example 41] ([Chg]K[X1]G[Phg]-NH2; linker N-2 via Suberoyl) | 1 to 1000 |
| CCCC(NC(=O)[C@@H]1CCCCNC(=O)CCCCCCCC(=O)N[C@@H](C2CCCCC2)C(=O)N1)C(=O)C(=O)NCC(=O)N[C@H](C(N)=O)c1ccccc1 (some centres unmarked) [Example 42] ([Chg]K[X1]G[Phg]-NH2; linker N-2 via Azelaoyl) | 1100 to 100000 |
| CCCC(NC(=O)[C@@H]1CCCCNC(=O)Cc2cccc(c2)CC(=O)N[C@@H](C2CCCCC2)C(=O)N1)C(=O)C(=O)NCC(=O)N[C@H](C(N)=O)c1ccccc1 (some centres unmarked) [Example 43] | 1 to 1000 |
| CCCC(NC(=O)[C@@H]1CCCCNC(=O)Cc2ccc(cc2)CC(=O)N[C@@H](C2CCCCC2)C(=O)N1)C(=O)C(=O)NCC(=O)N[C@H](C(N)=O)c1ccccc1 (some centres unmarked) [Example 44] | 1 to 1000 |
| CCCC(NC(=O)[C@@H]1CCCCNC(=O)CCC(=O)N[C@H](CC(=O)O)C(=O)N[C@@H](C2CCCCC2)C(=O)N1)C(=O)C(=O)NCC(=O)N[C@H](C(N)=O)c1ccccc1 (some centres unmarked) [Example 45] ([dD][Chg]K[X1]G[Phg]-NH2; linker N-3 via Suc) | 1100 to 100000 |
| CCCC(NC(=O)[C@@H]1CCCCNC(=O)CCCC(=O)N[C@H](CC(=O)O)C(=O)N[C@@H](C2CCCCC2)C(=O)N1)C(=O)C(=O)NCC(=O)N[C@H](C(N)=O)c1ccccc1 (some centres unmarked) [Example 46] ([dD][Chg]K[X1]G[Phg]-NH2; linker N-3 via Glutaryl) | 1100 to 100000 |
| CCCC(NC(=O)[C@@H]1CCCCNC(=O)CCC(=O)N[C@H](CCC(=O)O)C(=O)N[C@@H](C2CCCCC2)C(=O)N1)C(=O)C(=O)NCC(=O)N[C@H](C(N)=O)c1ccccc1 (some centres unmarked) [Example 47] ([dE][Chg]K[X1]G[Phg]-NH2; linker N-3 via Suc) | 1100 to 100000 |
| CCCC(NC(=O)[C@@H]1CCCCNC(=O)CCCC(=O)N[C@H](CCC(=O)O)C(=O)N[C@@H](C2CCCCC2)C(=O)N1)C(=O)C(=O)NCC(=O)N[C@H](C(N)=O)c1ccccc1 (some centres unmarked) [Example 48] ([dE][Chg]K[X1]G[Phg]-NH2; linker N-3 via Glutaryl) | 1100 to 100000 |
| CCCC(NC(=O)[C@@H]1CCCCNC(=O)CCC(=O)NCC(=O)N[C@@H](C2CCCCC2)C(=O)N1)C(=O)C(=O)NCC(=O)N[C@H](C(N)=O)c1ccccc1 (some centres unmarked) [Example 49] (G[Chg]K[X1]G[Phg]-NH2; linker N-3 via Suc) | 1100 to 100000 |
| CCCC(NC(=O)[C@@H]1CCCCNC(=O)CCCC(=O)NCC(=O)N[C@@H](C2CCCCC2)C(=O)N1)C(=O)C(=O)NCC(=O)N[C@H](C(N)=O)c1ccccc1 (some centres unmarked) [Example 50] (G[Chg]K[X1]G[Phg]-NH2; linker N-3 via Glutaryl) | 1100 to 100000 |
| CCCC(NC(=O)[C@@H]1CCCCNC(=O)CCC(=O)N[C@@H](C2CCCCC2)C(=O)N1)C(=O)C(=O)NCC(=O)N[C@H](C(N)=O)c1ccccc1 (some centres unmarked) [Example 51] ([Chg]K[X1]G[Phg]-NH2; linker N-2 via Suc) | 1100 to 100000 |
| CCCC(NC(=O)[C@@H]1CCCCNC(=O)CCCCC(=O)N[C@@H](C2CCCCC2)C(=O)N1)C(=O)C(=O)NCC(=O)N[C@H](C(N)=O)c1ccccc1 (some centres unmarked) [Example 52] ([Chg]K[X1]G[Phg]-NH2; linker N-2 via Adipoyl) | 1 to 1000 |
| CCCC(NC(=O)[C@@H]1CCCCNC(=O)CCCCCC(=O)N[C@@H](C2CCCCC2)C(=O)N1)C(=O)C(=O)NCC(=O)N[C@H](C(N)=O)c1ccccc1 (some centres unmarked) [Example 53] ([Chg]K[X1]G[Phg]-NH2; linker N-2 via Heptanedioyl) | 1 to 1000 |

Reference: patent US6914122B2 (priority 2000, dated 2005)
